Data published in PubChem BioAssay AID2060910 (Molecular Pharmacology Branch, DTP, NCI, 2025).

Test system: 242566-281-R-J2-PDC complex spheroid viability
Assay: Anticancer human tumor 242566-281-R-J2-PDC patient-derived pancreatic carcinoma cell line growth inhibition [RAS]
Details: for IC50: curve of first compound; for viability, T/C: stronger effect = lower value
Excerpt: RAS pathway inhibitors in Combinations in Complex Spheroids
A high-throughput screen of multi-cell type tumor spheroids was designed to identify active combinations of RAS pathway inhibitors and targeted small molecules. Complex spheroids include a stromal component modeled by human endothelial cells (HUVEC) and fibroblasts modeled by human mesenchymal stem cells (MSCs). The concentration ranges selected for each drug and investigational agent were based upon clinically achievable concentrations if the clinical Cmax of the agent was known.
Compounds. The drugs and investigational agents: abemaciclib (NSC768073), cobimetinib (NSC768068), divarasib (GDC6063, NSC841802), docetaxel (NSC628503), GDC-1971 (RLY-1971, NSC841576), gemcitabine (NSC613327), inavolisib (NSC800729), ipatasertib (NSC767898), KB-0742 (NSC834161), MRTX-1133 (NSC836407), osimertinib (NSC779217), RMC-4630 (NSC839698), RMC-6236 (NSC851965), RMC-6291 (NSC852671), Ro-3306 (NSC812927), sapanisertib (NSC764658), SN-38 (NSC673596), staurosporine (NSC755774), SY5609 (NSC837396), and tovorafenib (DAY101, NSC766906), were obtained from the National Cancer Institute (NCI) Developmental Therapeutics Program Chemical Repository. The FDA-approved anticancer drug set is available from the NCI Developmental Therapeutics Program. […] The stock solutions were prepared in dimethyl sulfoxide (DMSO, Sigma-Aldrich, St. Louis, MO, cat. D2650) at 800-fold the tested concentration and stored at -70 degrees C prior to their use. All drugs and investigational agents were tested over a range starting from a high concentration at or near the clinical Cmax and decreasing in half-log increments. If the clinical Cmax for an agent had not been determined, the highest concentration tested was 10 microM.
Cell Culture. All cells were maintained in an incubator at 37 degrees C and 5% CO2 with 95% humidity. The PDC lines were cultured according to standard operating procedures established by the NCI PDMR. All PDCs were thawed and cultured in Matrigel-coated flasks prepared with a working solution of 1X Ham's F-12 nutrient mix, without supplementation (Invitrogen, Waltham, MA, cat. 11765054), 100 U/mL penicillin-streptomycin (Invitrogen, cat. 15140122), and 2.5% Matrigel (Corning Inc., Corning, NY, cat. 354248) for the first three passages. The 362531-283-R-J2-PDC and 782815-120-R-J1-PDC lines were cultured in 6C/Colon 1B media, which includes advanced DMEM/F-12 (Thermo Fisher Scientific, cat. 12634028), 10 mM HEPES (Thermo Fisher Scientific, cat. 15630080), 1X GlutaMAX supplement (Thermo Fisher Scientific, cat. 35050061), 0.1 mg/mL primocin (InvivoGen, San Diego, CA, cat. ant-pm-2), 10% defined fetal bovine serum, heat inactivated (HyClone Laboratories Inc., Logan, UT, cat. SH30070.03HI), 50% L-WRN conditioned media (ATCC, cat. CRL-3276), 1.25 mM N-Acetyl-L-cysteine (Sigma-Aldrich, cat. A9165), 10 mM nicotinamide (Sigma-Aldrich, cat. N0636), 1X B-27 supplement (Thermo Fisher Scientific, cat. 17504044), 1X N-2 supplement (Thermo Fisher Scientific, cat. 17502048), 50 ng/mL human EGF (Thermo Fisher Scientific, cat. PHG0311), and 10 microM Y-27632 dihydrochloride (Tocris Bioscience, cat. 1254). The K12877-001-R-J1-PDC line was cultured in 6I media, which includes all 6C/Colon 1B media plus 10 ng/mL human FGF-10 (PeproTech, cat. 100-26), 1 ng/mL human FGF-2 (PeproTech, cat. 100-18B), 1 µM prostaglandin E2 (Tocris Bioscience, cat. 2296), […] hydrocortisone (Sigma-Aldrich, cat. H4001), and […] bovine insulin (Sigma-Aldrich, cat. I6634). The K86415-001-R-J1-PDC line was cultured in 6D media, which includes all 6C/Colon 1B media components minus the L-WRN conditioned media. The 485176-168-R4-J1-PDC was cultured in PANC media, which includes all 6C/Colon 1B media plus 100 ng/mL human FGF-10 (PeproTech, cat. 100-26), 500 nM SB-431542 (Selleckchem, cat. S1067), and 10 nM gastrin (Tocris Bioscience, cat. 3006). […]
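Also: spheroids exposed to compound for 7 days before readout.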
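For viability, T/C in this document: 100% = DMSO vehicle control wells.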

Compound: CC(C)n1nc(-c2ccc3oc(N)nc3c2)c2c(N)ncnc21 + C#Cc1c(F)ccc2cc(O)cc(-c3ncc4c(N5CC6CCC(C5)N6)nc(OCC56CCCN5CC(F)C6)nc4c3F)c12
- IC50 (second compound 0.0316 µM): 67.5 nM
- IC50 (second compound 0.1 µM): 9.86 nM
- IC50 (second compound 0.316 µM): 6.58 nM
- IC50 (second compound 1 µM): 3.24 nM
- IC50 (second compound 3.16 µM): 0.918 nM
- IC50 (second compound 10 µM): 0.639 nM
- viability, T/C (second compound 0.0316 µM, first compound 0.000316 µM): 91.9%
- viability, T/C (second compound 0.0316 µM, first compound 0.001 µM): 95.8%
- viability, T/C (second compound 0.0316 µM, first compound 0.00316 µM): 77.1%
- viability, T/C (second compound 0.0316 µM, first compound 0.01 µM): 61.3%
- viability, T/C (second compound 0.0316 µM, first compound 0.0316 µM): 50.5%
- viability, T/C (second compound 0.0316 µM, first compound 0.1 µM): 49.3%
- viability, T/C (second compound 0.1 µM, first compound 0.000316 µM): 81.4%
- viability, T/C (second compound 0.1 µM, first compound 0.001 µM): 80.2%
- viability, T/C (second compound 0.1 µM, first compound 0.00316 µM): 70.3%
- viability, T/C (second compound 0.1 µM, first compound 0.01 µM): 49.9%
- viability, T/C (second compound 0.1 µM, first compound 0.0316 µM): 40.6%
- viability, T/C (second compound 0.1 µM, first compound 0.1 µM): 40%
- viability, T/C (second compound 0.316 µM, first compound 0.000316 µM): 78.3%
- viability, T/C (second compound 0.316 µM, first compound 0.001 µM): 73.5%
- viability, T/C (second compound 0.316 µM, first compound 0.00316 µM): 57.9%
- viability, T/C (second compound 0.316 µM, first compound 0.01 µM): 44.5%
- viability, T/C (second compound 0.316 µM, first compound 0.0316 µM): 38%
- viability, T/C (second compound 0.316 µM, first compound 0.1 µM): 31.3%
- viability, T/C (second compound 1 µM, first compound 0.000316 µM): 57.9%
- viability, T/C (second compound 1 µM, first compound 0.001 µM): 64%
- viability, T/C (second compound 1 µM, first compound 0.00316 µM): 50.4%
- viability, T/C (second compound 1 µM, first compound 0.01 µM): 29.4%
- viability, T/C (second compound 1 µM, first compound 0.0316 µM): 28.7%
- viability, T/C (second compound 1 µM, first compound 0.1 µM): 27.8%
- viability, T/C (second compound 3.16 µM, first compound 0.000316 µM): 63.4%
- viability, T/C (second compound 3.16 µM, first compound 0.001 µM): 46.9%
- viability, T/C (second compound 3.16 µM, first compound 0.00316 µM): 39.2%
- viability, T/C (second compound 3.16 µM, first compound 0.01 µM): 30.7%
- viability, T/C (second compound 3.16 µM, first compound 0.0316 µM): 24.1%
- viability, T/C (second compound 3.16 µM, first compound 0.1 µM): 19.8%
- viability, T/C (second compound 10 µM, first compound 0.000316 µM): 55%
- viability, T/C (second compound 10 µM, first compound 0.001 µM): 48%
- viability, T/C (second compound 10 µM, first compound 0.00316 µM): 37.9%
- viability, T/C (second compound 10 µM, first compound 0.01 µM): 29.1%
- viability, T/C (second compound 10 µM, first compound 0.0316 µM): 21.7%
- viability, T/C (second compound 10 µM, first compound 0.1 µM): 17.8%

Compound: Cc1nc(N2CCC3(CC2)COC(C)C3N)c(CO)nc1Sc1ccnc(N)c1Cl (centres undefined) + CCn1c(-c2cc(N3CCN(C)CC3)cnc2C(C)OC)c2c3cc(ccc31)-c1csc(n1)CC(NC(=O)C1CC1C)C(=O)N1CCCC(N1)C(=O)OCC(C)(C)C2
- IC50 (second compound 0.000949 µM): 353 nM
- IC50 (second compound 0.003 µM): 71.8 nM
- IC50 (second compound 0.00949 µM): < 31.6 nM
- IC50 (second compound 0.03 µM): < 31.6 nM
- IC50 (second compound 0.0949 µM): < 31.6 nM
- IC50 (second compound 0.3 µM): < 31.6 nM
- viability, T/C (second compound 0.000949 µM, first compound 0.0316 µM): 92.2%
- viability, T/C (second compound 0.000949 µM, first compound 0.1 µM): 69.8%
- viability, T/C (second compound 0.000949 µM, first compound 0.316 µM): 43.5%
- viability, T/C (second compound 0.000949 µM, first compound 1 µM): 45%
- viability, T/C (second compound 0.000949 µM, first compound 3.16 µM): 32.9%
- viability, T/C (second compound 0.000949 µM, first compound 10 µM): 19.8%
- viability, T/C (second compound 0.003 µM, first compound 0.0316 µM): 61%
- viability, T/C (second compound 0.003 µM, first compound 0.1 µM): 46.9%
- viability, T/C (second compound 0.003 µM, first compound 0.316 µM): 31%
- viability, T/C (second compound 0.003 µM, first compound 1 µM): 28.2%
- viability, T/C (second compound 0.003 µM, first compound 3.16 µM): 26.1%
- viability, T/C (second compound 0.003 µM, first compound 10 µM): 16.1%
- viability, T/C (second compound 0.00949 µM, first compound 0.0316 µM): 41.3%
- viability, T/C (second compound 0.00949 µM, first compound 0.1 µM): 26.4%
- viability, T/C (second compound 0.00949 µM, first compound 0.316 µM): 27.9%
- viability, T/C (second compound 0.00949 µM, first compound 1 µM): 21.9%
- viability, T/C (second compound 0.00949 µM, first compound 3.16 µM): 19.4%
- viability, T/C (second compound 0.00949 µM, first compound 10 µM): 17.1%
- viability, T/C (second compound 0.03 µM, first compound 0.0316 µM): 25.8%
- viability, T/C (second compound 0.03 µM, first compound 0.1 µM): 24.3%
- viability, T/C (second compound 0.03 µM, first compound 0.316 µM): 19.3%
- viability, T/C (second compound 0.03 µM, first compound 1 µM): 17.9%
- viability, T/C (second compound 0.03 µM, first compound 3.16 µM): 15.1%
- viability, T/C (second compound 0.03 µM, first compound 10 µM): 14.9%
- viability, T/C (second compound 0.0949 µM, first compound 0.0316 µM): 21.5%
- viability, T/C (second compound 0.0949 µM, first compound 0.1 µM): 19.1%
- viability, T/C (second compound 0.0949 µM, first compound 0.316 µM): 18.5%
- viability, T/C (second compound 0.0949 µM, first compound 1 µM): 16.9%
- viability, T/C (second compound 0.0949 µM, first compound 3.16 µM): 14.3%
- viability, T/C (second compound 0.0949 µM, first compound 10 µM): 15.4%
- viability, T/C (second compound 0.3 µM, first compound 0.0316 µM): 21.5%
- viability, T/C (second compound 0.3 µM, first compound 0.1 µM): 18.1%
- viability, T/C (second compound 0.3 µM, first compound 0.316 µM): 16.6%
- viability, T/C (second compound 0.3 µM, first compound 1 µM): 14.8%
- viability, T/C (second compound 0.3 µM, first compound 3.16 µM): 16.4%
- viability, T/C (second compound 0.3 µM, first compound 10 µM): 12.9%
